Results from publication PMC6112376, “Comprehensive Analyses and Prioritization of Tox21 10K Chemicals Affecting Mitochondrial Function by in-Depth Mechanistic Studies” (Environmental Health Perspectives, 2018).
Where two headings read alike, the source gives them in different places.

Legend:
HepG2 cells [1] = conditions: cited from earlier work
rat primary hepatocytes [2] = assay: MMP assay in rat primary hepatocytes
[3] = biological target: T1, mitochondrial respiratory chain complex II (Rattus norvegicus, UniProt P21913+Q641Z9+Q6PCT8+Q920L2); assay: Respiratory chain complex II activity; assay type: biochemical; conditions: tested up to 100μM
T1 construct: Submitochondrial particles were prepared by subjecting the intact rat mitochondria, isolated as described above, to three successive freeze–thaw cycles; from tissue; host or cells: rat liver mitochondria (submitochondrial particles)
T1 sequence (Q920L2 35-656): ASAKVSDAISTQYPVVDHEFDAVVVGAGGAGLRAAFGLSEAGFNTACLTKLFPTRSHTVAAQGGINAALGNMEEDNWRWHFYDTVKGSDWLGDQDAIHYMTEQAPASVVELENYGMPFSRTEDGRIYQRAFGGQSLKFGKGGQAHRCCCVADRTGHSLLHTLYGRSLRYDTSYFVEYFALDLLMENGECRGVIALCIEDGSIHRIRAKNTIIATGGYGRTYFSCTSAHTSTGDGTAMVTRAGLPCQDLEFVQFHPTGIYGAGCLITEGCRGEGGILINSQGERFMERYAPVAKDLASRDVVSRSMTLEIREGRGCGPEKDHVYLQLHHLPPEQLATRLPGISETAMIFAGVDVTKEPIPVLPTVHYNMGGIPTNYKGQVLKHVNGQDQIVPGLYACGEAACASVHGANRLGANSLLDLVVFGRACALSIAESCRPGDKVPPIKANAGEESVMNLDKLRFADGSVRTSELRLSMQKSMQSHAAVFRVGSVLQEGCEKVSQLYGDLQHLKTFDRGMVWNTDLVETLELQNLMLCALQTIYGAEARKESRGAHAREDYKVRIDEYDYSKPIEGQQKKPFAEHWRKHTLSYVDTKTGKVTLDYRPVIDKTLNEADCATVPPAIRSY
T1 sequence (P21913 31-282): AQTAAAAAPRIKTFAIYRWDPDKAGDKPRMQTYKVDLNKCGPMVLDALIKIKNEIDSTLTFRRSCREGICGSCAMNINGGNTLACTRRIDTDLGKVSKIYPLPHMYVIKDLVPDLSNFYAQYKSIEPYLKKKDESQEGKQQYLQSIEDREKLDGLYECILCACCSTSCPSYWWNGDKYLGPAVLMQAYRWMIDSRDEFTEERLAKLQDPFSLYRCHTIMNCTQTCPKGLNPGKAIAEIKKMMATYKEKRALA
T1 sequence (Q641Z9 1-169): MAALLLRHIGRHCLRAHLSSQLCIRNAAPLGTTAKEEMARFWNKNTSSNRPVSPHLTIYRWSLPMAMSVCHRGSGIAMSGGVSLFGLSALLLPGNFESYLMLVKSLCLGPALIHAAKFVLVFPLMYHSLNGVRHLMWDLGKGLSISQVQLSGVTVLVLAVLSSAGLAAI
T1 sequence (Q6PCT8 57-159): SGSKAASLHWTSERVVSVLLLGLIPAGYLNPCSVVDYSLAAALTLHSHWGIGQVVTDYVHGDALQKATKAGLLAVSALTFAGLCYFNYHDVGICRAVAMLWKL

[4] = system: mitochondrial respiratory chain complex I; assay type: biochemical, rat; conditions: at 20μM
[5] = system: mitochondrial respiratory chain complex III; assay type: biochemical, rat
[6] = system: Nrf2/ARE (ARE-bla HepG2 cells); assay: ARE β-lactamase reporter gene assay; assay type: cell-based, human
[7] = system: mitochondrial respiratory chain complex V; assay type: biochemical, rat
[8] = system: Caenorhabditis elegans (Bristol N2); conditions: in vivo
hNSC = assay: MMP assay in human neural stem cells (hNSC); assay type: cell-based
[9] = system: HeLa cells expressing YFP-Parkin; assay: Parkin translocation assay; assay type: cell-based, human
HepG2 cells [10] = system: HepG2 cells
[11] = system: Caenorhabditis elegans strain PE255; assay: In vivo C. elegans ATP status assay
[12] = system: Caenorhabditis elegans (Bristol N2); assay: C. elegans larval development and growth assay
HepG2 cells [13] = assay: ROS-Glo hydrogen peroxide (ROS) assay; assay type: cell-based, human
[14] = system: mitochondrial respiratory chain complex IV; assay type: biochemical, rat
[15] = system: Caenorhabditis elegans strain PE255; conditions: in vivo
rat primary hepatocytes [16] = system: rat primary hepatocytes
HepG2 cells [17] = assay: Oxygen consumption, Seahorse XF24 analyzer; assay type: cell-based, human
HepG2 cells [18] = assay: Intracellular ATP content (cell viability) assay; assay type: cell-based, human
[19] = system: p53 (p53-bla HCT-116 cells); assay: p53 β-lactamase reporter gene assay; assay type: cell-based, human
[20] = system: isolated rat liver mitochondria; assay: Oxygen consumption, Clark-type oxygen electrode; assay type: biochemical

CO/C=C(/C(=O)OC)c1ccccc1COc1cccc(C(F)(F)F)n1 [Picoxystrobin]
MMP assays efficacy (%) qHTS-HepG2 (HepG2 cells [1]): -116±5%
IC50 (HepG2 cells [1]; read-out: MMP assays IC50 (µM), qHTS-HepG2): 9.31 ± 2.67 µM
IC50 (rat primary hepatocytes [2]; read-out: MMP assays IC50 (µM) Rat Hepatocytes): 14.6 ± 4.7 µM
IC50 (rat primary hepatocytes [2]; read-out: Rat hepatocytes IC50 (MMP)): 16.1 µM
Complex II % inhibition (activity call) [3]: Inactive
Complex I % inhibition [4]: 13.2±3.23 at 20μM %
inhibitory effect on Complex III at (concentration) [5]: 4 µM
Complex III % inhibition ([5]; at 4μM): 53.3±3.26 at 4μM %
EC50 ([6]; 16 h incubation, mean±SD of three experiments, read-out: ARE (HepG2) EC50): 0.75 ± 0.49 µM
ARE (HepG2) (efficacy) ([6]; % of positive control): 57.6±7.85%
Complex V % inhibition (activity call) [7]: Inactive
LEC (lowest effect concentration), larval growth assay [8]: < 10 µM
hNSC (efficacy) (MMP) (hNSC): 38.2±0.00 ( −92.8±16.3 ) %
IC50 (hNSC; read-out: hNSC IC50 (MMP)): 38.2 µM
Parkin recruitment [9]: Inactive
Parkin translocation into mitochondria (in words) ([9]; 3 h): did not induce Parkin translocation
HepG2 (efficacy) Galactose (MMP) (HepG2 cells [10]): 24.4±4.56 ( −119±6.45 ) %
HepG2 (efficacy) Glucose (MMP) (HepG2 cells [10]): 13.6±14.5 ( −62.9±25.1 ) %
MMP assays efficacy (%) HepG2 (HepG2 cells [10]): -122%
IC50 (HepG2 cells [10]; read-out: HepG2 IC50 Galactose (MMP)): 24.4 µM
IC50 (HepG2 cells [10]; read-out: HepG2 IC50 Glucose (MMP)): 13.6 µM
IC50 (HepG2 cells [10]; read-out: MMP assays IC50 (µM) HepG2): 1 µM
LUM: mean difference in luminescence (ATP content) relative to plate controls ([11]; 0.5 µM): -0.02313
LUM: mean difference in luminescence (ATP content) relative to plate controls ([11]; 1 µM): -0.1059
LUM: mean difference in luminescence (ATP content) relative to plate controls ([11]; 5 µM): 0.5517
LUM: mean difference in luminescence (ATP content) relative to plate controls ([11]; 10 µM): 0.8678
LUM: mean difference in luminescence (ATP content) relative to plate controls ([11]; 25 µM): 0.0568
LUM: mean difference in luminescence (ATP content) relative to plate controls ([11]; 50 µM): 0.3665
LUM: mean difference in luminescence (ATP content) relative to plate controls ([11]; 75 µM): 0.468
LUM: mean difference in luminescence (ATP content) relative to plate controls ([11]; 100 µM): 0.877
effect on ATP content (in words) ([11]; 0.5–100μM): inhibited
LEC LUM: lowest effect concentration for luminescence, a measure of nematode ATP content ([11]; in vivo): 5 µM
EXT: mean difference in nematode size relative to plate controls ([12]; 0.5 µM): 0.05428
EXT: mean difference in nematode size relative to plate controls ([12]; 1 µM): 0.004345
EXT: mean difference in nematode size relative to plate controls ([12]; 5 µM): 1.265
EXT: mean difference in nematode size relative to plate controls ([12]; 10 µM): 1.24
EXT: mean difference in nematode size relative to plate controls ([12]; 25 µM): 0.112
EXT: mean difference in nematode size relative to plate controls ([12]; 50 µM): 0.8304
EXT: mean difference in nematode size relative to plate controls ([12]; 75 µM): 0.6508
EXT: mean difference in nematode size relative to plate controls ([12]; 100 µM): 1.291
effect on larval growth (in words) ([12]; 0.5–100μM): inhibited
LEC EXT: lowest effect concentration for extinction, a measure of nematode size ([12]; in vivo): 5 µM
ROS (HepG2) (efficacy) (HepG2 cells [13]): 15.4±5.47 ( 36.2±2.46 ) %
EC50 (HepG2 cells [13]; read-out: ROS (HepG2) EC50): 15.4 µM
Complex IV % inhibition (activity call) [14]: Inactive
LEC (lowest effect concentration), ATP assay [15]: < 10 µM
MMP assays efficacy (%) Rat Hepatocytes (rat primary hepatocytes [16]): -101+6%
Rat hepatocytes (efficacy) (MMP) (rat primary hepatocytes [16]): 16.1±7.03 ( −77.3±9.18 ) %
Activity in oxygen consumption (HepG2 cells [17]): Inhibitor
ATP (HepG2, galactose) (efficacy) (HepG2 cells [18]): 3.08±0.64 ( −76.4±37.7 ) %
ATP (HepG2, glucose) (efficacy) (HepG2 cells [18]): 3.61±1.57 ( −76.4±30.3 ) %
IC50 (HepG2 cells [18]; read-out: ATP (HepG2, galactose) IC50): 3.08 µM
IC50 (HepG2 cells [18]; read-out: ATP (HepG2, glucose) IC50): 3.61 µM
EC50 ([19]; 16 h incubation, mean±SD of three experiments): 6.68 ± 2.21 µM
p53 (HCT-116) (efficacy) ([19]; % of positive control): 40.2±19.6%
Potential Mechanism [20]: Inhibitor
effect on mitochondrial respiration (in words) [20]: effects similar to antimycin A
I-ADP, % of control (O2 consumption rate) ([20]; 0.0064 µM): 94 (43.2) % of control
I-sub, % of control (O2 consumption rate) ([20]; 0.0064 µM): 104 (11.7) % of control
II-ADP, % of control (O2 consumption rate) ([20]; 0.0064 µM): 81 (61.2) % of control
II-sub, % of control (O2 consumption rate) ([20]; 0.0064 µM): 101 (20.8) % of control
I-ADP, % of control (O2 consumption rate) ([20]; 0.032 µM): 84 (38.8) % of control
I-sub, % of control (O2 consumption rate) ([20]; 0.032 µM): 103 (11.5) % of control
II-ADP, % of control (O2 consumption rate) ([20]; 0.032 µM): 36 (27.2) % of control
II-sub, % of control (O2 consumption rate) ([20]; 0.032 µM): 74 (15.3) % of control
I-ADP, % of control (O2 consumption rate) ([20]; 0.16 µM): 50 (22.8) % of control
I-sub, % of control (O2 consumption rate) ([20]; 0.16 µM): 90 (10.1) % of control
II-ADP, % of control (O2 consumption rate) ([20]; 0.16 µM): 11 (7.9) % of control
II-sub, % of control (O2 consumption rate) ([20]; 0.16 µM): 41 (8.5) % of control
I-ADP, % of control (O2 consumption rate) ([20]; 0.8 µM): 16 (7.2) % of control
I-sub, % of control (O2 consumption rate) ([20]; 0.8 µM): 59 (6.6) % of control
II-ADP, % of control (O2 consumption rate) ([20]; 0.8 µM): 9 (7.1) % of control
II-sub, % of control (O2 consumption rate) ([20]; 0.8 µM): 33 (6.9) % of control
I-ADP, % of control (O2 consumption rate) ([20]; 4 µM): 9 (4.0) % of control
I-sub, % of control (O2 consumption rate) ([20]; 4 µM): 39 (4.4) % of control
II-ADP, % of control (O2 consumption rate) ([20]; 4 µM): 9 (6.6) % of control
II-sub, % of control (O2 consumption rate) ([20]; 4 µM): 33 (6.9) % of control
I-ADP, % of control (O2 consumption rate) ([20]; 20 µM): 9 (4.1) % of control
I-sub, % of control (O2 consumption rate) ([20]; 20 µM): 34 (3.8) % of control
II-ADP, % of control (O2 consumption rate) ([20]; 20 µM): 10 (7.4) % of control
II-sub, % of control (O2 consumption rate) ([20]; 20 µM): 36 (7.4) % of control
I-ADP, % of control (O2 consumption rate) ([20]; 100 µM): 8 (3.7) % of control
I-sub, % of control (O2 consumption rate) ([20]; 100 µM): 25 (3.9) % of control
II-ADP, % of control (O2 consumption rate) ([20]; 100 µM): 7 (4.7) % of control
II-sub, % of control (O2 consumption rate) ([20]; 100 µM): 16 (4.9) % of control
